According to patent publication US20230265037A1, “METHOD FOR MAN[…] CALCIUM CITRATE BY USING SHELL AND APPLICATION THEREOF” (KOREA RESEARCH INSTITUTE OF CHEMICAL TECHNOLOGY, priority 2020, published 2023):
Values joined by “and” are separate entries in the source; they are usually repeats but may differ in a detail not shown here. Equal values may be shown once.

Assay: Fluorine removal experiment (residual fluorine concentration of filtrate by ion concentration meter)
Details: for removal rate: HF solution 1,000 ppm (experimental value 970 ppm), reacted 30 minutes
Description: In order to confirm the fluorine removal rate using the powder or solution prepared in Examples 1 to 3, a fluorine removal experiment was performed by the following method, and the residual fluorine concentration of the filtrate remaining after the experiment was measured using an ion concentration meter and is shown in Tables 2 to 4. At this time, a Metrohm 930 compact IC Flex model from Metrohm was used as the ion concentration meter.
A 50% hydrofluoric acid (HF) solution with a concentration of 1,000 ppm was prepared, and so that the molar ratio of calcium ion:fluoride ion is 1:2, 2:2, 10.56 g and 21.12 g of the mono calcium citrate powder recovered in Example 1 were mixed with 1 L of water to make a solution, the hydrofluoric acid and the solution were reacted for 30 minutes, and the results are shown in Table 2.
A 50% hydrofluoric acid (HF) solution with a concentration of 1,000 ppm was prepared, 4.75 g, 9.5 g, and 19.1 g of the tricalcium citrate powder recovered in Example 2 were mixed with 1 L of water so that the molar ratio of calcium ion:fluoride ion was 1:2, 2:2, and 4:2 to form a slurry, the hydrofluoric acid and the slurry were reacted for 30 minutes, and the results are shown in Table 3. (Tricalcium citrate (C12H10Ca3O14) contains 3 moles of calcium ions per mole, so ⅓ of the theoretical amount is added.)
A 50% hydrofluoric acid (HF) solution with a concentration of 1,000 ppm was prepared, the solution in which the shells and citric acid were dissolved prepared in Example 3 was mixed with 1 L of water and reacted for 30 minutes, and the results are shown in Table 4.

[1] = molar ratio calcium ion:fluoride ion 1:2
[2] = molar ratio calcium ion:fluoride ion 2:2

| Compound | removal rate [1] [%] | removal rate [2] [%] | fluorine removal rate (summary) (summary of Tables 2 and 3) [%] | removal rate (molar ratio calcium ion:fluoride ion 4:2) |
| --- | --- | --- | --- | --- |
| O=C([O-])CC(O)(CC(=O)O)C(=O)O.O=C([O-])CC(O)(CC(=O)O)C(=O)O.[Ca+2] [Example 1, mono calcium citrate] | 99.25 | 99.77 | ≥ 99 | – |
| O=C([O-])CC(O)(CC(=O)[O-])C(=O)[O-].O=C([O-])CC(O)(CC(=O)[O-])C(=O)[O-].[Ca+2].[Ca+2].[Ca+2] [Example 2, tricalcium citrate] | 97.63 | 98.33 | – | 98.28% and 98.29% |
